Measured values from patent publication US9339486B2, “Heterocyclic modulators of cannabinoid receptors” (THE CLEVELAND CLINIC FOUNDATION, priority 2008, dated 2016).

Experiments:
CB1 [1] = target: T1, CB1 (Homo sapiens (Human), UniProt P21554); test: CB1 Binding Assay ([3H]CP 55940, cell membrane homogenates)
Procedure: After being incubated, the samples were filtered rapidly under vacuum through glass fiber filters (GF/B; Packard) presoaked with 0.3% PEI and rinsed several times with ice-cold buffer containing 50 mM Tris HCl (pH 7.4) and 0.5% BSA using a 96-sample cell harvester (Unifilter; Packard). The filters were dried then counted for radioactivity in a scintillation counter (Topcount; Packard) using a scintillation cocktail (Microscint 0; Packard). The results were expressed as a percentage of the inhibition of the control radioligand-specific binding. The reference standard compounds were tested in each experiment at several concentrations to obtain a competition curve from which its IC50 was calculated.

CB1 [2] = target: T1, CB1; test: Radioligand competition binding, CHO-K1 membranes, [3H]SR141716A
Procedure: Mukherjee, S., et al., Species Comparison and Pharmacological Characterization of Rat and Human CB2 Cannabinoid Receptors, Eur J Pharmacol, 2004, 505:1-9. The competition binding experiment was performed in 96 well plates (Masterblock®, Catalogue number 786201, Greiner Bio-One) containing binding buffer (50 mM Tris pH 7.4, 2.5 mM EDTA, 0.5% protease free BSA, saponine 10 μg/ml), recombinant membrane extracts (2 μg protein/well) and 1 nM [^3H] SR141716A (GE Healthcare, TRK1028, 42 Ci/mmol, diluted in binding buffer). […] The sample is incubated in a final volume of 0.1 ml for 60 min at 25° C. and then filtered on GF/C Unifilter microplate (Perkin Elmer, Catalogue number 6005177) presoaked in 0.05% Brij for 2 hrs at room temperature. Filters are washed six times with 4 ml of cold binding buffer and bound [^3H] SR141716A is determined by liquid scintillation counting. IC50 were determined by non-linear regression using one site competition equation. The inhibition constants (Ki) were calculated using the Cheng Prusoff equation (Ki=IC50/(1+(L/KD)), where L=concentration of radioligand in the assay, and KD=affinity of the radioligand for the receptor).

rCB2 receptors = rCB2 receptors (Rattus norvegicus (Rat), UniProt Q9QZN9); test: cAMP activation assay rCB2; format: cell-based; conditions: read-out: Agonist EC50 (mean ± s.e. mean) cAMP activation assays rCB2
Procedure: The compound of Example 3 was tested for agonist activity at the rat CB1 (rCB1) and rCB2 receptors, at eight concentrations, in duplicate: 10, 3, 1, 0.3, 0.1, 0.03, 0.01 and 0.001 μM. Recombinant cells grown to mid-log phase in culture media without antibiotics were detached with PBS containing 5 mM EDTA, centrifuged and resuspended in assay buffer at a concentration of 16.6×10^5 cells/ml. The test was performed in 96 well plates. For testing, 12 μl of cells ([…]) were mixed with 12 μl of agonist at increasing concentrations. […] The plates were then incubated for 30 min at room temperature. After addition of the lysis buffer, cAMP concentrations were estimated, according to the manufacturer specification, with the HTRF kit from Cis-Bio International (Catalogue number 62AM2PEB).

naïve rats [3] = test: Thermal paw withdrawal latency in naïve rats; format: in vivo, rat
Procedure: To determine sensitivity to noxious heat, rats were placed in plexiglass enclosures on a transparent glass surface maintained at 30° C. and allowed to acclimate for 30 min. A thermal testing apparatus, consisting of a heat-emitting projector lamp and an electronic timer, was used. The device was activated after the lamp is placed directly beneath the planter surface of the hindpaw. The paw withdrawal latency in response to the radiant heat was recorded by a digital timer. A cutoff of 30 s was used to prevent potential tissue damage. After the baseline was measured, three groups of naïve rats (n=10) received 1.0, 3.0, or 10 mg/kg of the compound of Example 3 i.p. Response latencies were determined twice for each rat before drug injection and at 5, 10, 15, 30, 45, 60, 90 and 120 min after IP injection. The percent maximal possible effect (% MPE) was calculated as ([postdrug latency−baseline latency]/[cutoff time (30 s)−baseline latency])×100.

naïve rats [4] = test: Open field chamber testing; format: in vivo, rat; conditions: i.p.: Example 3 15 mg/kg, WIN 55,212-2 7 mg/kg, haloperidol 1 mg/kg
Procedure: The automated open-field chamber (Med Associates ENV-515 Test Environment, St. Albans, Vt.) 43.2×43.2×30.5 cm (L×W×H) equipped with three pairs of 16 infrared arrays that continually monitored the animal's movement was used to determine potential CNS effects of the compound of Example 3, WIN55212-2, and haloperidol in naïve rats. Rats were individually tested 15 min after i.p. drug administration. The infrared beams were set 2.5 cm apart horizontally and at a height of 3 cm above the floor, with the rearing array set at 12 cm from the floor. The area in the box was divided into 4 equal quadrants (zones), with data collected within each quadrant and across quadrants (zone entries). An ambulatory movement was defined as a motion of at least 5 cm and was coded by quadrant. Vertical movements were counted when the rat moved vertically a minimum of 12 cm from the floor. Zone entries were defined as an entry into a zone (from another zone). Entry into a zone was counted when the rat was far enough into the zone to break 2 sets of photoelectric beams for the new zone beams during an ambulatory movement.

[5] = CB1, test concentration 1.0E−05 (MD)

T1 sequence (P21554 whole entry): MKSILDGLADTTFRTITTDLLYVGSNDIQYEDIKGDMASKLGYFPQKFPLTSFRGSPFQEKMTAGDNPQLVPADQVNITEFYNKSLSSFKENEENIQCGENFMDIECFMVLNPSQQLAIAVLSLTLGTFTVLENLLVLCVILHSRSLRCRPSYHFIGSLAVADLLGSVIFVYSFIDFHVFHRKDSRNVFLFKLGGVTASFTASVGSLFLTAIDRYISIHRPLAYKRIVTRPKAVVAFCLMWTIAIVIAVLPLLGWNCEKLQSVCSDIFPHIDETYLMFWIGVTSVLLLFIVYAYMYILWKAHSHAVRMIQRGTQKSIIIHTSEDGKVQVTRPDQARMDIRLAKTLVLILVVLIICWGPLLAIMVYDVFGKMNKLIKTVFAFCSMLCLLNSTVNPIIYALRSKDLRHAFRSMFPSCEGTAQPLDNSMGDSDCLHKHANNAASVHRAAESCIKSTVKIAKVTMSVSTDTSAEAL

CC1(Cc2ccccc2)COc2cc(C(=O)N3CCCCC3)ccc21 (centres unmarked) [Example 3, 3-benzyl-3-methyl-2,3-dihydrobenzofuran-6-carboxylic acid-piperidine amide]
% Inhibition of Control Specific Binding (CB1 [1]; [5]): 71% | % of Control Specific Binding Mean (CB1 [1]; [5]): 29% | % of Control Specific Binding 1st (CB1 [1]; CB1, test concentration 1.0E−05 (MD), first replicate): 22% | % of Control Specific Binding 2nd (CB1 [1]; CB1, test concentration 1.0E−05 (MD), second replicate): 36% | % Inhibition of Control Specific Binding CB1 (CB1 [1]; as repeated in Table 3): 71% | Ki (CB1 [2]; CHO-K1 membranes, 1 nM [3H]SR141716A, read-out: Mean Ki (nM) hCB1): > 10000 nM | radioactive ligand displacement at hCB1 receptors (CB1 [2]; up to 10 μM): did not demonstrate detectable radioactive ligand displacement | EC50 (rCB2 receptors): 0.0217 ± 0.0079 µM | nociceptive effect of a thermal stimulus applied to hind paws (naïve rats [3]; 1 mg/kg or 3 mg/kg i.p.): did not block | nociceptive effect of a thermal stimulus applied to hind paws (naïve rats [3]; 10 mg/kg i.p.): short-lasting antinociceptive effect | exploratory behavior in the open field (distance traveled, ambulatory time, rearing, zone entries) (naïve rats [4]): absence of psychoactive cannabinoid effect
